Results on four compounds are retold here after US11518740B2, “Pleuromutilin (phenylthio)acetic acid ester with anti-drug resistant bacteria activity and a method of preparing the same” (SHAANXI UNIVERSITY OF SCIENCE AND TECHNOLOGY, priority 2021, dated 2022).

What all share (type): cell-based
For assay [1], the system named is multi-resistant Staphylococcus aureus 171. The experiment in a line: Paper diffusion method drug sensitivity test, MRSA-171. To be noted: for inhibitory effect (in words): multi-drug resistant Staphylococcus aureus 171, summary of FIGS. 1-3 and Table 1; for Zone of inhibition: strain MRSA-171, drug sensitive paper 30 μg/tablet, 37° C., 24 h. The protocol:
(§1) The antimicrobial efficacy was determined by a paper diffusion method drug sensitivity test.
(§2) Experimental strains: multi-resistant Staphylococcus aureus 171, multi-resistant Staphylococcus aureus 222, multi-resistant Staphylococcus aureus 596. The experimental strains were identified by Huashan Hospital Affiliated to Fudan University (Institute of Antibiotic of Fudan University).
(§3) Drug sensitive paper: The drug sensitive paper is a special drug sensitive paper with a diameter of 6.35 mm and a water absorption of 0.02 mL. The control drug was vancomycin (30 μg/tablet); the test drugs were pleuromutilin (phenylithio)acetic acid ester (30 μg/tablet).
(§4) Reagents: LB agar medium, LA broth medium, dichloromethane.
(§5) The experimental strains were inoculated in non-selective medium and placed in air at 37° C. for 24 h. Pick a single colony that grows well and inoculate it into broth medium, incubate at 35° C.±2° C. for 6 hours, and use LA broth medium to calibrate the concentration of the bacterial solution to 0.5 Mie turbidimetric tube (1.5×10^8 CFU/mL). A bacterial suspension is obtained.
(§6) The experimental strains were inoculated in non-selective medium and placed in air at 37° C. for 24 h. Pick a single colony that grows well and inoculate it into broth medium, incubate at 35° C.±2° C. for 6 hours, and use LA broth medium to calibrate the concentration of the bacterial solution to 0.5 Mie turbidimetric tube ([…]). A bacterial suspension is obtained.
(§7) LB dry powder was weighed, sterilized at 103.4 Kpa, 121.3° C. high-pressure steam for 15 min, and then placed it in a 40° C.-50° C. water bath. A sterile empty plate (inner diameter 9 cm) was placed on the surface of the ultra-clean table water table, and […] to the plate. The thickness of each plate was 3 mm to 4 mm. After the plate was cooled at room temperature, it was stored in the refrigerator at 2° C.-8° C. A sterile cotton swab was used to dip the bacterial solution and to evenly coat the surface of the LB plate 3 times. After inoculation of the bacterial suspension, the LB plate was dried at room temperature for 3 min to 5 min. Sterile forceps were used to closely attach the antibacterial drug paper to the dish. The dish was put upside down and placed in a 37° C. incubator for 24 h. The results were observed by measuring the diameter. Taking 0.5% DMSO solution as a negative control, the antibacterial activity is expressed by the diameter of the inhibition zone. The inhibition zone≥17 mm, sensitive; the inhibition zone of 15 mm-16 mm, intermediary; the inhibition zone≤14 mm, drug resistance.

For assay [2], the system named is multi-resistant Staphylococcus aureus 596. Put plainly: Paper diffusion method drug sensitivity test, MRSA-596. The note with it: for inhibitory effect (in words): multi-drug resistant Staphylococcus aureus 596, summary of FIGS. 1-3 and Table 1; for Zone of inhibition: strain MRSA-596, drug sensitive paper 30 μg/tablet, 37° C., 24 h. Here is the method: as §1, §2, §3, §4, §5, §6, §7

In assay [3] the test system is multi-resistant Staphylococcus aureus 222. Put plainly: Paper diffusion method drug sensitivity test, MRSA-222. The note with it: for inhibitory effect (in words): multi-drug resistant Staphylococcus aureus 222, summary of FIGS. 1-3 and Table 1; for Zone of inhibition: strain MRSA-222, drug sensitive paper 30 μg/tablet, 37° C., 24 h. The protocol:
as §1, §2, §3, §4, §5, §6, §7

The structures appear in SMILES notation.

For the compound `C=C[C@]1(C)CC(OC(=O)COC(=O)CSc2ccccc2)[C@]2(C)[C@H](C)CC[C@]3(CCC(=O)[C@H]32)[C@@H](C)[C@@H]1O` (some centres unmarked), the “inhibitory effect (in words)” value in assay [1], in assay [2] and in assay [3] was “strong inhibitory effects” in each case. For the same compound, the results for the Zone of inhibition in assay [2] and in assay [3] were 23 mm and 15 mm, respectively.

On to `O=C(O)CSc1ccccc1` [(Phenylithio)acetic acid], for which the “inhibitory effect (in words)” value in assay [1], in assay [2] and in assay [3] was “no inhibitory effect” in each case. The Zone of inhibition in assay [1], in assay [2] and in assay [3] was 0 mm in each case.

As for `C=C[C@]1(C)C[C@@H](OC(=O)CO)[C@]2(C)[C@H](C)CC[C@]3(CCC(=O)[C@H]32)[C@@H](C)[C@@H]1O` [Pleuromutilin], the “inhibitory effect (in words)” value in assay [1], in assay [2] and in assay [3] was “no inhibitory effect” each time. Moreover, the Zone of inhibition in assay [1], in assay [2] and in assay [3] was 0 mm each time.

As for `CN[C@H](CC(C)C)C(=O)N[C@H]1C(=O)N[C@@H](CC(N)=O)C(=O)N[C@H]2C(=O)N[C@H]3C(=O)N[C@H](C(=O)N[C@H](C(=O)O)c4cc(O)cc(O)c4-c4cc3ccc4O)[C@H](O)c3ccc(c(Cl)c3)Oc3cc2cc(c3O[C@@H]2O[C@H](CO)[C@@H](O)[C@H](O)[C@H]2O[C@H]2C[C@](C)(N)[C@H](O)[C@H](C)O2)Oc2ccc(cc2Cl)[C@H]1O` [Vancomycin], the Zone of inhibition in assay [1] was determined as 17 mm; in assay [2], 21 mm; in assay [3] it was 18 mm.
